Source: publication PMC11607896 (Biotechnology for Biofuels and Bioproducts, 2024)

How the values were obtained:
Type in all cases: biochemical
PcCel7D [1] = molecular target: T1, PcCel7D (Phanerodontia chrysosporium, UniProt Q7LIJ0); assay: inhibition of pNPC hydrolysis; conditions: 1 mM pNPC, 1.45 µM enzyme, pH 5.0, 50 °C, 20 min; product inhibition
T1 sequence (Q7LIJ0 19-510): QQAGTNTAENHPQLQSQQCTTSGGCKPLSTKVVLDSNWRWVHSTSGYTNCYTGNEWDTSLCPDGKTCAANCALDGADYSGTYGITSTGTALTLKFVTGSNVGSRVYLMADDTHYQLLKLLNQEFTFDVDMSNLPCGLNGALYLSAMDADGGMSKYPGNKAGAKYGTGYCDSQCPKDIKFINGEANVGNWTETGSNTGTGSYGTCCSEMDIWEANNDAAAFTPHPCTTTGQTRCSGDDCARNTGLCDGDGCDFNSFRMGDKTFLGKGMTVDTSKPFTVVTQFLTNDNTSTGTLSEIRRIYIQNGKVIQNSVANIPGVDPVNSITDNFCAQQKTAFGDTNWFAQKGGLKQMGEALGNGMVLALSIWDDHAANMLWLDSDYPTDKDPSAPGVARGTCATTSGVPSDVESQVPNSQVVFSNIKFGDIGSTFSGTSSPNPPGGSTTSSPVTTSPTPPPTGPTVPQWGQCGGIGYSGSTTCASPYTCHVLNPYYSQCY

TrCel7A [2] = molecular target: T2, TrCel7A (Trichoderma reesei, UniProt P62694); assay: inhibition of pNPC hydrolysis; conditions: 1 mM pNPC, 1.45 µM enzyme, pH 5.0, 50 °C, 20 min; product inhibition
T2 sequence (P62694 18-513): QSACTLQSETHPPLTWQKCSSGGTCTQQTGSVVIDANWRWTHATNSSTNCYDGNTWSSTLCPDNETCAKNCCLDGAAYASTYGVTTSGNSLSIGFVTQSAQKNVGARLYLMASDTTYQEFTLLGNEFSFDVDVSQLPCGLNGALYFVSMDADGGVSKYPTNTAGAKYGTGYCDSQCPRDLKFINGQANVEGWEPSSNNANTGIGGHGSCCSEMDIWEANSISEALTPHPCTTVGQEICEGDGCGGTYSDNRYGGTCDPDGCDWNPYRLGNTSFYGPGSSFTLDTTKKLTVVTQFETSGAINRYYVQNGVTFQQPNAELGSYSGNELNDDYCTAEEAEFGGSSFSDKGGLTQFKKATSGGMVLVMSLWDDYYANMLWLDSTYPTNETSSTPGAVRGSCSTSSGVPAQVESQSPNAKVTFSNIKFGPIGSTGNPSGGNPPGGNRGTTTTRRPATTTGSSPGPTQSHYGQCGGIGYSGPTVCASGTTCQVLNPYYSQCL

PcCel7C [3] = molecular target: T3, PcCel7C (Phanerodontia chrysosporium, UniProt P13860); assay: inhibition of pNPC hydrolysis; conditions: 1 mM pNPC, 1.45 µM enzyme, pH 5.0, 50 °C, 20 min; product inhibition
T3 sequence (P13860 19-516): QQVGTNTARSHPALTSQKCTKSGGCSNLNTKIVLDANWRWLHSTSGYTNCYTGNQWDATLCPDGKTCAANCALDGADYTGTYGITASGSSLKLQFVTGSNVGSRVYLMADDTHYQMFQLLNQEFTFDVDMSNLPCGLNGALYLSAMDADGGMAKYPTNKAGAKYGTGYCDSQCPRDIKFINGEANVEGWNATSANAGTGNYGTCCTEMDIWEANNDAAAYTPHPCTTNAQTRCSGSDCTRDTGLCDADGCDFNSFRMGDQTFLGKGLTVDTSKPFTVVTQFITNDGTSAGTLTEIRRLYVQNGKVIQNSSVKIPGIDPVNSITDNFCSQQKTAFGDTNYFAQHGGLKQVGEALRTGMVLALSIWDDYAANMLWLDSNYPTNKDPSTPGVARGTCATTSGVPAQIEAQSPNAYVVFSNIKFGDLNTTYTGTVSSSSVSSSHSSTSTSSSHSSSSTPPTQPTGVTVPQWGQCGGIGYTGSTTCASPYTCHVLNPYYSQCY

PcCel7C [4] = molecular target: T3, PcCel7C; assay: PASC hydrolysis, reducing sugar; conditions: PASC 10 g/L, 0.2 µM enzyme, pH 5.0, 50 °C, 60 min; may be deactivation
PcCel7D [5] = molecular target: T1, PcCel7D; assay: PASC hydrolysis, reducing sugar; conditions: PASC 10 g/L, 0.2 µM enzyme, pH 5.0, 50 °C, 60 min; may be deactivation
TrCel7A [6] = molecular target: T2, TrCel7A; assay: inhibition of pNPC hydrolysis; conditions: 1 mM pNPC, 1.45 µM enzyme, pH 5.0, 50 °C, 20 min
PcCel7D [7] = molecular target: T1, PcCel7D; assay: inhibition of pNPC hydrolysis; conditions: 1 mM pNPC, 1.45 µM enzyme, pH 5.0, 50 °C, 20 min
PcCel7C [8] = molecular target: T3, PcCel7C; assay: inhibition of pNPC hydrolysis; conditions: 1 mM pNPC, 1.45 µM enzyme, pH 5.0, 50 °C, 20 min
PcCel7C [9] = molecular target: T3, PcCel7C; assay: PASC hydrolysis, reducing sugar; conditions: PASC 10 g/L, 0.2 µM enzyme, pH 5.0, 50 °C, 60 min; may be deactivation; remark: listed apart in the source
PcCel7D [10] = molecular target: T1, PcCel7D; assay: PASC hydrolysis, reducing sugar; conditions: PASC 10 g/L, 0.2 µM enzyme, pH 5.0, 50 °C, 60 min; may be deactivation; remark: listed apart in the source

OC[C@H]1O[C@@H](O[C@H]2[C@H](O)[C@@H](O)C(O)O[C@@H]2CO)[C@H](O)[C@@H](O)[C@@H]1O (stereo partly shown) [cellobiose]
% reduction in activity at 1 mM (PcCel7D [1]): ~ 50% | % reduction in activity at 1 mM (TrCel7A [2]): ~ 50% | % reduction in activity at 1 mM (PcCel7C [3]): ~ 50%

O=C(O)c1c(O)cccc1O [compound 12, 2,6-dihydroxybenzoic acid]
% reduction in activity at 30 mM (PcCel7C [4]): 87% | % reduction in activity at 30 mM (PcCel7D [5]): 67%

OC[C@H]1OC(O)[C@H](O)[C@@H](O)[C@@H]1O (stereo partly shown) [glucose]
% loss of activity at 1.5 M (TrCel7A [6]): 30% | % loss of activity at 1.5 M (PcCel7D [7]): 67% | % loss of activity at 1.5 M (PcCel7C [8]): 67%

O=C(O)c1ccc(O)cc1 [compound 3, 4-hydroxybenzoic acid]
% decrease in activity at 30 mM (PcCel7C [9]): the activity of PcCBHs exhibited susceptibility to the same LRCs, following a comparable pattern | % decrease in activity at 30 mM (PcCel7D [10]): the activity of PcCBHs exhibited susceptibility to the same LRCs, following a comparable pattern
